Test results as given in US20200172483A1, “HETEROCYCLIC SMALL MOLECULE MODULATORS OF HUMAN STING” (Curadev Pharma Limited, priority 2017, published 2020).
Like-named read-outs stand apart in the source and are kept apart here.

Key:
hSTING (HAQ) = molecular target: T1, hSTING (HAQ) (Homo sapiens, UniProt Q86WV6, G230A/H232R/R293Q/R71H); experiment: Luciferase reporter assay in HEK293T-hSTING-Luciferase cells (HAQ polymorph); format: cell-based; details: EC50 range
T1 construct: host or cells: HEK293T
From the text: (§1) • a) Stable STING expressing cells—Stable HEK293T STING-expressing cell lines were generated using plasmids purchased from Invivogen, CA, USA, that contain STING cDNA cloned into the pUNO-1 vector under hEF1-HTLV promoter and containing the Blasticidin selection cassette. The plasmids hSTING (R232), hSTING (H232), hSTING (HAQ) were directly procured from Invivogen while hSTING (AQ) and hSTING (Q) were derived from hSTING (HAQ) and hSTING (R232) plasmids respectively by using a PCR based site directed mutagenesis method. These vectors were individually transfected into HEK293T cells using Lipofectamine (Invitrogen) and transfected cells were selected under Blasticidin selection. These transfected cells were further subjected to clonal selection using the limiting dilution method to obtain clonally pure populations of HEK cells transfected with each of the above mentioned human STING variants. Only those clones were selected in which ligand independent activation of STING was minimal. • b) Stable Luciferase reporter gene expressing cells—Stable HEK293T Luciferase reporter gene expressing cell lines were generated using pCDNA4 plasmids under an IRF-inducible promoter. This promoter is comprised of five tandem interferon-stimulated response elements (ISRE) fused to an ISG54 minimal promoter. This vector was transfected into HEK293T cells using Lipofectamine (Invitrogen) and transfected cells were selected under Zeocin selection. These transfected cells were further subjected to clonal selection using the limiting dilution method to obtain clonally pure populations of HEK cells transfected the Luciferase reporter construct. Only those clones were selected in which ligand independent induction of luciferase was minimal.
(§2) 5×10^5 clonally selected HEK293T-hSTING-Luciferase cells were seeded in 384-well plates in growth medium and stimulated with novel compounds. After 20 hr of stimulation supernatant were removed and secretary reporter gene activity were measured using the Quanti-Luc detection system (Invivogen) on a Spectramax i3X luminometer.
(§3) The 5 major polymorphisms of human STING are shown in FIG. 1, with their prevalence in human populations indicated.

IRF pathway = experiment: Reporter gene expression assay for IRF axis in THP1-Dual cells (secreted Lucia luciferase); format: cell-based, human; details: 20 hr stimulation, QUANTI-Luc, EC50 range, read-out: THP-IRF activity
Method: (§4) THP1-Dual™ cells (Invivogen) were derived from the human THP-1 monocyte cell line by stable integration of two inducible reporter constructs. As a result, THP1-Dual™ cells allow the simultaneous study of the NF-κB pathway, by monitoring the activity of secreted SEAP, and the IRF pathway, by assessing the activity of a secreted luciferase (Lucia). […] THP1-Dual™ cells were seeded in 384-well plates in growth medium and stimulated with novel compounds. After 20 hr of stimulation supernatant were removed and reporter proteins were readily measured in the cell culture supernatant using QUANTI-Blue™ (Invivogen), a SEAP detection reagent, and QUANTI-Luc™ (Invivogen), a luciferase detection reagent on a Spectramax i3X luminometer. EC50 value ranges for exemplary compounds tested in the above assay are given.

NF-κB pathway = experiment: Reporter gene expression assay for NFκB axis in THP1-Dual cells (secreted SEAP); format: cell-based, human; details: 20 hr stimulation, QUANTI-Blue SEAP, EC50 range, read-out: THP-NFKB activity
Method: as §4

hSTING (H232) = molecular target: T2, hSTING (H232) (Homo sapiens, UniProt Q86WV6); experiment: Luciferase reporter assay in HEK293T-hSTING-Luciferase cells (H232/REF polymorph); format: cell-based; details: EC50 range
T2 construct: host or cells: HEK293T
From the text: as §1, §2, §3

WT/R232 STING protein = molecular target: T3, WT/R232 STING protein (Homo sapiens, UniProt Q86WV6, H232R); experiment: Luciferase reporter assay in HEK293T-hSTING-Luciferase cells (R232); format: cell-based; details: 20 hr stimulation, EC50 range
T3 construct: host or cells: HEK293T
How it was run: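 Clonal HEK293T cells stably expressing human STING R232 plus an ISRE/ISG54-driven secreted luciferase reporter, stimulated with compounds for 20 hr. Luciferase in supernatant read by luminescence; activity given as fold-induction over baseline.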

T3 sequence (Q86WV6 whole entry H232R): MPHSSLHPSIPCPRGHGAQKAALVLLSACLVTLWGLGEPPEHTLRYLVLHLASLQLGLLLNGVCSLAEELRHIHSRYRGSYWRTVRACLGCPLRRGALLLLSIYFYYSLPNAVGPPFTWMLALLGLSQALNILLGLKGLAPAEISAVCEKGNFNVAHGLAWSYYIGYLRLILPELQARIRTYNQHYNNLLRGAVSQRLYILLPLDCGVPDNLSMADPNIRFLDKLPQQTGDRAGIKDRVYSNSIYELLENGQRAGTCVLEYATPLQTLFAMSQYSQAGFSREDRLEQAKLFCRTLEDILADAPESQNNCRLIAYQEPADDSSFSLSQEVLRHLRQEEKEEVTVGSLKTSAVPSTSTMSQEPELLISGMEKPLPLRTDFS
T1 sequence (Q86WV6 whole entry R71H/G230A/H232R/R293Q): as the sequence (Q86WV6 whole entry H232R) above, with R71H, G230A, R293Q counted along it
T2 sequence (Q86WV6 whole entry): as the sequence (Q86WV6 whole entry H232R) above, with R232H counted along it

SMILES	EC50 (hSTING (HAQ))	EC50 (IRF pathway; Homo sapiens, THP1-Dual, 20 h)	EC50 (NF-κB pathway; Homo sapiens, THP1-Dual, 20 h)	EC50 (hSTING (H232))	EC50 (WT/R232 STING protein)	EC50 (IRF pathway)	EC50 (NF-κB pathway)
Cc1cccc(CN2C(=O)C(C)(C)c3ccc(C(=O)NCc4c(F)cc(F)cc4F)cc32)c1 [Example 18, 3,3-dimethyl-1-(3-methylbenzyl)-2-oxo-N-(2,4,6-trifluorobenzyl)indoline-6-carboxamide]	1 to 10 µM	> 10 µM	1 to 10 µM	1 to 10 µM	≤ 1 µM	–	–
CC1(C)C(=O)N(Cc2cccc(N=[N+]=[N-])c2)c2cc(C(=O)NCc3c(F)cc(F)cc3F)ccc21 [Example 57, 1-(3-azidobenzyl)-3,3-dimethyl-2-oxo-N-(2,4,6-triflurobenzyl)indoline-6-carboxamide]	1 to 10 µM	> 10 µM	> 10 µM	1 to 10 µM	1 to 10 µM	–	–
CC1(C)C(=O)N(Cc2cc(F)cc(F)c2)c2nc(C(=O)NCc3ccc(F)cc3)ccc21 [Example 189, 1-(3,5-difluorobenzyl)-N-(4-fluorobenzyl)-3,3-dimethyl-2-oxo-2,3-dihydro-1H-pyrrolo[2,3-b]pyridine-6-carboxamide]	1 to 10 µM	> 10 µM	> 10 µM	1 to 10 µM	≤ 1 µM	–	–
Cc1cccc(CNC(=O)c2ccc3c(c2)N(Cc2c(F)cccc2Cl)C(=O)C3(C)C)c1 [Example 8, 1-(2-chloro-6-fluorobenzyl)-3,3-dimethyl-N-(3-methylbenzyl)-2-oxoindoline-6-carboxamide]	1 to 10 µM	> 10 µM	1 to 10 µM	1 to 10 µM	≤ 1 µM	–	–
CC1(C#N)C(=O)N(Cc2c(F)cccc2Cl)c2cc(C(=O)NCc3c(F)cc(F)cc3F)ccc21 (centres unmarked) [Example 166, 1-(2-chloro-6-fluorobenzyl)-3-cyano-3-methyl-2-oxo-N-(2,4,6-trifluorobenzyl)indoline-6-carboxamide]	1 to 10 µM	–	–	1 to 10 µM	≤ 1 µM	> 10 µM	> 10 µM
CC1(C)C(=O)N(Cc2c(F)cccc2Cl)c2cc(C(=O)NCc3ccccc3F)ccc21 [Example 72, 1-(2-chloro-6-fluorobenzyl)-N-(2-fluorobenzyl)-3,3-dimethyl-2-oxoindoline-6-carboxamide]	1 to 10 µM	> 10 µM	1 to 10 µM	1 to 10 µM	≤ 1 µM	–	–
CC1(C)C(=O)N(Cc2c(F)cccc2C#N)c2cc(C(=O)NCc3c(F)cc(F)cc3F)ccc21 [Example 76, 1-(2-cyano-6-fluorobenzyl)-3,3-dimethyl-2-oxo-N-(2,4,6-trifluorobenzyl)indoline-6-carboxamide]	1 to 10 µM	> 10 µM	> 10 µM	1 to 10 µM	1 to 10 µM	–	–
CC1(C#N)C(=O)N(Cc2cc(F)cc(F)c2)c2cc(C(=O)NCc3c(F)cc(F)cc3F)ccc21 (centres unmarked) [Example 168, 3-cyano-1-(3,5-difluorobenzyl)-3-methyl-2-oxo-N-(2,4,6-trifluorobenzyl)indoline-6-carboxamide]	–	–	–	–	–	> 10 µM	> 10 µM
Cc1ccc(CNC(=O)c2ccc3c(c2)N(CCc2ccccc2)C(=O)C3(C)C)o1 [Example 59, 3,3-dimethyl-N-((5-methylfuran-2-yl)methyl)-2-oxo-1-phenethylindoline-6-carboxamide]	–	–	–	–	1 to 10 µM	–	–
CC1(C#N)C(=O)N(Cc2cc(F)cc(F)c2)c2cc(C(=O)NCc3c(F)cc(F)cc3F)ccc21 (centres unmarked) [Example 167, 3-cyano-1-(3,5-difluorobenzyl)-3-methyl-2-oxo-N-(2,4,6-trifluorobenzyl)indoline-6-carboxamide]	–	–	–	–	–	1 to 10 µM	1 to 10 µM
CC1(C)C(=O)N(Cc2c(F)cc(O)cc2F)c2cc(C(=O)NCc3c(F)cc(F)cc3F)ccc21 [Example 65, 1-(2,6-difluoro-4-hydroxybenzyl)-3,3-dimethyl-2-oxo-N-(2,4,6-trifluorobenzyl)indoline-6-carboxamide]	–	–	–	–	≤ 1 µM	–	–
Cn1c(=O)n(Cc2ccccc2Cl)c2cc(C(=O)NCc3ccco3)ccc21 [Example 202, 3-(2-chlorobenzyl)-N-(furan-2-ylmethyl)-1-methyl-2-oxo-2,3-dihydro-1H-benzo[d]imidazole-5-carboxamide]	–	–	–	–	> 10 µM	–	–
CC1(C#N)C(=O)N(Cc2cc(F)cc(F)c2)c2cc(C(=O)NCc3c(F)cc(F)cc3F)ccc21 (centres unmarked) [Example 163, 3-cyano-1-(3,5-difluorobenzyl)-3-methyl-2-oxo-N-(2,4,6-trifluorobenzyl)indoline-6-carboxamide]	–	–	–	–	–	1 to 10 µM	1 to 10 µM
Cn1cc(CN2C(=O)C(C)(C)c3ccc(C(=O)NCc4c(F)cc(F)cc4F)cc32)cn1 [Example 68, 3,3-dimethyl-1-((1-methyl-1H-pyrazol-4-yl)methyl)-2-oxo-N-(2,4,6-trifluorobenzyl)indoline-6-carboxamide]	–	–	–	–	1 to 10 µM	–	–
CC1(C)C(=O)N(Cc2cc(F)cc(F)c2)c2nc(C(=O)NCCc3c(F)cc(F)cc3F)ccc21 [Example 190, 1-(3,5-difluorobenzyl)-3,3-dimethyl-2-oxo-N-(2,4,6-trifluorophenethyl)-2,3-dihydro-1H-pyrrolo[2,3-b]pyridine-6-carboxamide]	–	–	–	–	> 10 µM	–	–
Cc1ccc(CNC(=O)c2ccc3c(c2)N(Cc2ccccc2Cl)C(=O)C3(C)C)o1 [Example 51, 1-(2-chlorobenzyl)-3,3-dimethyl-N-((5-methylfuran-2-yl)methyl)-2-oxoindoline-6-carboxamide]	–	–	–	–	1 to 10 µM	–	–

Further lines, results first:

EC50 (hSTING (HAQ))	EC50 (IRF pathway; Homo sapiens, THP1-Dual, 20 h)	EC50 (NF-κB pathway; Homo sapiens, THP1-Dual, 20 h)	EC50 (hSTING (H232))	EC50 (WT/R232 STING protein)	EC50 (IRF pathway)	EC50 (NF-κB pathway)	SMILES
≤ 1 µM	1 to 10 µM	1 to 10 µM	≤ 1 µM	≤ 1 µM	–	–	CC1(C)C(=O)N(Cc2c(F)cccc2Cl)c2cc(C(=O)NCc3cc4cc(F)ccc4o3)ccc21 [Example 75, 1-(2-chloro-6-fluorobenzyl)-N-((5-fluorobenzofuran-2-yl)methyl)-3,3-dimethyl-2-oxoindoline-6-carboxamide]
1 to 10 µM	> 10 µM	> 10 µM	1 to 10 µM	≤ 1 µM	–	–	Cc1ccc(CNC(=O)c2ccc3c(c2)N(Cc2c(F)cccc2Cl)C(=O)C3(C)C)o1 [Example 13, 1-(2-chloro-6-fluorobenzyl)-3,3-dimethyl-N-((5-methylfuran-2-yl)methyl)-2-oxoindoline-6-carboxamide]
–	–	–	–	> 10 µM	–	–	CC1(O)C(=O)N(Cc2cc(F)cc(F)c2)c2cc(C(=O)NCc3c(F)cc(F)cc3F)ccc21 (centres unmarked) [Example 162]
–	–	–	–	> 10 µM	–	–	Cc1nn(C)cc1CN1C(=O)C(C)(C)c2ccc(C(=O)NCc3c(F)cc(F)cc3F)cc21 [Example 80, 1-((1,3-dimethyl-1H-pyrazol-4-yl)methyl)-3,3-dimethyl-2-oxo-N-(2,4,6-trifluorobenzyl)indoline-6-carboxamide]
–	–	–	–	> 10 µM	–	–	CC1C(=O)N(Cc2cc(F)cc(F)c2)c2cc(C(=O)NCc3c(F)cc(F)cc3F)ccc21 (centres unmarked) [Example 53, 1-(3,5-difluorobenzyl)-3-methyl-2-oxo-N-(2,4,6-trifluorobenzyl)indoline-6-carboxamide]
–	–	–	–	> 10 µM	–	–	CC1(C)C(=O)N(Cc2c(F)cccc2Cl)c2cc(C(=O)NCc3cccc4c3OCO4)ccc21 [Example 87, N-(benzo[d][1,3]dioxol-4-ylmethyl)-1-(2-chloro-6-fluorobenzyl)-3,3-dimethyl-2-oxoindoline-6-carboxamide]
–	–	–	–	1 to 10 µM	–	–	CC1(C)C(=O)N(Cc2c(F)cccc2Cl)c2cc(C(=O)NCc3cccc(Cl)c3)ccc21 [Example 9, 1-(2-chloro-6-fluorobenzyl)-N-(3-chlorobenzyl)-3,3-dimethyl-2-oxoindoline-6-carboxamide]
